Results taken from patent US9382258B2, “Agents for treating pain and uses thereof” (AbbVie Inc., priority 2012, dated 2016).

Target: T1, human Cav2.2 (Homo sapiens, UniProt Q00975)
T1 construct: cells endogenously expressing human Cav2.2; endogenous in cells; host or cells: IMR32 cells
Experiment: Calcium flux (FLIPR, Calcium 4 dye) in IMR32 cells endogenously expressing human Cav2.2
Assay type: cell-based
Conditions: 60 minute pre-incubation, 2 μM nifedipine to block L-type channels, depolarized with 80 mM KCl, 5 mM CaCl2, average of n≥2 runs unless marked *
Protocol: Compounds were tested for effect on calcium flux in cells endogenously expressing human Cav2.2. Specifically, IMR32 cells endogenously expressing human Cav2.2 were assayed for Ca^2+ influx using a no-wash calcium indicator dye (Calcium 4 dye: Molecular Probes) and FLIPR technology (Lubin, M L; et al. Assay and Drug Development Technologies, 2006, 4(6), 689-694). The IMR32 cells were maintained in MEM media containing 10% (v/v) FBS, 1% (v/v) antibiotic/antimitotic, 1% (v/v) sodium pyruvate and 1% (v/v) MEM NEAA. Following dissociation in 0.05% (v/v) trypsin/EDTA, cells were seeded into black 1×96-well plates (Corning Cellbind) at a density of 1−1.2×10^5 cells/well and incubated in the maintenance media above for 48 hours at 37° C. Immediately prior to performing the assay the media was removed and cells were loaded for 1.5 hours with 1× Calcium 4 dye prepared in HBSS (137 mM NaCl, 5.4 mM KCl, 0.25 mM Na2HPO4, 0.44 mM KH2PO4, 1.3 mM CaCl2, 1 mM MgSO4, 4.2 mM NaHCO3) containing HEPES pH 7.4 at room temperature. After dye loading and a subsequent 60 minute pre-incubation with compounds (full log dilutions from 10 μM to 0.1 nM) in the presence of 1.3 mM CaCl2 and 2 μM nifedipine to block endogenous L-type channels, the external Ca^2+ concentration was increased to 5 mM CaCl2 and the cells concomitantly depolarized with 80 mM KCl to assay channel activity.
To determine the IC50 values, the percent inhibition of the compound at each concentration was determined relative to the activity in the absence of inhibitor, and data was fitted using non-linear regression sigmoidal dose response curve analysis with GraphPad Prism®. Unless otherwise indicated (*), the reported values are average values from at least two runs (i.e., n≧2).

T1 sequence (Q00975 whole entry): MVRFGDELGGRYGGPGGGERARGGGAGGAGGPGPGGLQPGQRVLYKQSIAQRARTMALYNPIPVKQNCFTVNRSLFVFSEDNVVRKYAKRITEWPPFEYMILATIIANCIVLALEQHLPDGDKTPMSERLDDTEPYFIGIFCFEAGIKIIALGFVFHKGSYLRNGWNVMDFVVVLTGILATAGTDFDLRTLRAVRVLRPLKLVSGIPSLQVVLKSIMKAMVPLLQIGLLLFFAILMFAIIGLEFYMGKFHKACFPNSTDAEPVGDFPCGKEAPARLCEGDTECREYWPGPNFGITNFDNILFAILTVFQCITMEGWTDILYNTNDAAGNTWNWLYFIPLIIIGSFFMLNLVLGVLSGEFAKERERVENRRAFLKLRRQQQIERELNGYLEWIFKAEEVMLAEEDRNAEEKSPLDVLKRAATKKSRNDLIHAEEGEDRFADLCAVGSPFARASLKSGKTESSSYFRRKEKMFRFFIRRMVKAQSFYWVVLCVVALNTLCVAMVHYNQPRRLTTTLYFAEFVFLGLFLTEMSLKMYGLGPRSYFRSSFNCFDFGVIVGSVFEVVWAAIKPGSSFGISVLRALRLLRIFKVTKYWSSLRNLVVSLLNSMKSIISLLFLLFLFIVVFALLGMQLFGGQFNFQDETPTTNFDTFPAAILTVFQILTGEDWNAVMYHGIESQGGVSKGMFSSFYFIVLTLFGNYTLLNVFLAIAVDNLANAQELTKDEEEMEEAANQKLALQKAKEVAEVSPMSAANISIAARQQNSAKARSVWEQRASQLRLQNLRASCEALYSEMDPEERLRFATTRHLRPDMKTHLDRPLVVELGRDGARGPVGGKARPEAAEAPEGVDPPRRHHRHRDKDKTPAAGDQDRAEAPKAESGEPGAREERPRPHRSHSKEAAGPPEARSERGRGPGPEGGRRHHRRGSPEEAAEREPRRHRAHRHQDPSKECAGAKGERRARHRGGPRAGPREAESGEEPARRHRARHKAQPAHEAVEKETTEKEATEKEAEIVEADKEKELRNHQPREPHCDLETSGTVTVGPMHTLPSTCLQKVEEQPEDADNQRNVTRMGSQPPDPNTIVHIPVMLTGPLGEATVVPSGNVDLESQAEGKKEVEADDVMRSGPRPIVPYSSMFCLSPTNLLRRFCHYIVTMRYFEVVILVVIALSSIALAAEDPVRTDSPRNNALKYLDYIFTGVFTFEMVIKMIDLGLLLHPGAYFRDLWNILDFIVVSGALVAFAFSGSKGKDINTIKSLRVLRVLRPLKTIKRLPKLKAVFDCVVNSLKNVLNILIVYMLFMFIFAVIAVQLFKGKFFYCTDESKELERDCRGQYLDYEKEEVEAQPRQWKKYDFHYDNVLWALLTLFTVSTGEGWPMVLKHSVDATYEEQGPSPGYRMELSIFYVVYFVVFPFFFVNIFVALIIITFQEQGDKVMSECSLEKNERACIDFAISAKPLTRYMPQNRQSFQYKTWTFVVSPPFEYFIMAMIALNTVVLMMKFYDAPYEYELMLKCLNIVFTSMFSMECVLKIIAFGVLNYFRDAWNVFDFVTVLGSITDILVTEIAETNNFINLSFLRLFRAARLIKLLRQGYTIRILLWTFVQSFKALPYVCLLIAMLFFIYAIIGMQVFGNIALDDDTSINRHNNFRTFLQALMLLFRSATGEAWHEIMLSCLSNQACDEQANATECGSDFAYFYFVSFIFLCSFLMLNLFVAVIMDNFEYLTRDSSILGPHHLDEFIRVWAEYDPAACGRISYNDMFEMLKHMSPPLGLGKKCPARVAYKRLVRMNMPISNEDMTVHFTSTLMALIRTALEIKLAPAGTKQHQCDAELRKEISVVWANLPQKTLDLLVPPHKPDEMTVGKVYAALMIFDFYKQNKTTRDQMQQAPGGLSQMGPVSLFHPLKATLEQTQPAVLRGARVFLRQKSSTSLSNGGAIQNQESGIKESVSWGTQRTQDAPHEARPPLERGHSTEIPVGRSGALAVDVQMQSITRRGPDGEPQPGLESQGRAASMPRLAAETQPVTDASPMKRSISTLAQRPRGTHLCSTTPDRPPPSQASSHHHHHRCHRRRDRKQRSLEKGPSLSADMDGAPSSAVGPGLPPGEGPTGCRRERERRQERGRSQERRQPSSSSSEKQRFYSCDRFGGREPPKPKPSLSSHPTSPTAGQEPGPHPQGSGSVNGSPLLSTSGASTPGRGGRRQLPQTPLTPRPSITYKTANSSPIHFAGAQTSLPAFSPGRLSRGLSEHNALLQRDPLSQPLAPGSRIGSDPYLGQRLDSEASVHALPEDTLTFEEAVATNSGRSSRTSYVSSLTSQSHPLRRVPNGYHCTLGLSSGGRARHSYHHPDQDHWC
T1 sequence (P54284 whole entry partner): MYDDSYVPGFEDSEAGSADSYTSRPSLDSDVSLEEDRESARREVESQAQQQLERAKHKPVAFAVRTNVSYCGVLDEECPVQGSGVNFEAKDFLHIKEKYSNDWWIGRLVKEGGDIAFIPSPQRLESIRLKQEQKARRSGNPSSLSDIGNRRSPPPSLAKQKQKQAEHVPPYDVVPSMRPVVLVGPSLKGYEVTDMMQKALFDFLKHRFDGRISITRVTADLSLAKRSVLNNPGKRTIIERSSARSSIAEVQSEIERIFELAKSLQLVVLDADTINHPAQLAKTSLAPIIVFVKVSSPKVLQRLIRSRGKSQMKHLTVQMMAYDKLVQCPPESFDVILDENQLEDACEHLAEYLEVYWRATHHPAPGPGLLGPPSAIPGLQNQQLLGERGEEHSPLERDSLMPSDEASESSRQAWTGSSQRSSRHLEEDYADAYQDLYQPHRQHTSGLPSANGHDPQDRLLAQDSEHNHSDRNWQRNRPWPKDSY
T1 sequence (P54289 25-956 partner limits assumed): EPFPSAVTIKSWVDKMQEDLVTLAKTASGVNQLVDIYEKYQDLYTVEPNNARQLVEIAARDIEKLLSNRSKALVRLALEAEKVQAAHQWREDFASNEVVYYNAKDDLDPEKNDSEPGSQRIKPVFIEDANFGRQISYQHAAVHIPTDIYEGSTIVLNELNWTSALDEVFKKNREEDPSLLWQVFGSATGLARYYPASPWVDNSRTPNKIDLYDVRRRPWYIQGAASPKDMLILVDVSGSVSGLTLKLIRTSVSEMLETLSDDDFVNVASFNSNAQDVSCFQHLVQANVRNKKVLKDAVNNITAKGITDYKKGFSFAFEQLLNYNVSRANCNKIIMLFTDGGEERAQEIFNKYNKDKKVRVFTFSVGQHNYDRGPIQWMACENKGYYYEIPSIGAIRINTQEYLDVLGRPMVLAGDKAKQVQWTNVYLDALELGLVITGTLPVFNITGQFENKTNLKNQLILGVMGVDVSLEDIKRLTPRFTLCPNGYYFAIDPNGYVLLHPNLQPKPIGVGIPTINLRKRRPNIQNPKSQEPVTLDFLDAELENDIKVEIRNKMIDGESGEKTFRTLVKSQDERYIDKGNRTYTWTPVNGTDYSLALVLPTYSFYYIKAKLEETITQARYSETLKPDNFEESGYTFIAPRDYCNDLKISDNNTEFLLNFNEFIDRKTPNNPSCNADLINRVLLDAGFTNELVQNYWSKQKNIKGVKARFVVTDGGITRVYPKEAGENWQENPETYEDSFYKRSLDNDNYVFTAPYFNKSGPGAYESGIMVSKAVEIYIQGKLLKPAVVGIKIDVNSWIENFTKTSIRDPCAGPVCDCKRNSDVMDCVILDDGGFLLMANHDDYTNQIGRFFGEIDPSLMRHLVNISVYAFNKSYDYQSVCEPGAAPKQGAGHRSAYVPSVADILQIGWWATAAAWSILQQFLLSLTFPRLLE
T1 sequence (P54289 957-1103 partner limits assumed): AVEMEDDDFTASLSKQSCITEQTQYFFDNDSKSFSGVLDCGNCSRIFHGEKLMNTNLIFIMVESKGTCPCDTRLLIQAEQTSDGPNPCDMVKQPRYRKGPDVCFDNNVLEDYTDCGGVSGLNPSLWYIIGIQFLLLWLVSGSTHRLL

Row | Compound | IC50
1 | O=C1[C@@H]2C[C@@H](Oc3cnc(C4CC4)cn3)CN2CCCN1c1cccc(C(F)(F)F)c1 [Example 27, (8R,9aS)-8-[(5-cyclopropylpyrazin-2-yl)oxy]-2-[3-(trifluoromethyl)phenyl]octahydro-1H-pyrrolo[1,2-a][1,4]diazepin-1-one] | 10 µM
2 | O=C1CCN(c2cnc(C3CC3)cn2)C[C@@H]2C[C@@H](Oc3ccc(C(F)(F)F)cn3)CN12 [Example 51, (8R,9aS)-2-(5-cyclopropylpyrazin-2-yl)-8-{[5-(trifluoromethyl)pyridin-2-yl]oxy}octahydro-5H-pyrrolo[1,2-a][1,4]diazepin-5-one] | 7.35 µM
3 | O=C(c1ccc(F)cc1)N1CCCN2C[C@H](Oc3cnc(C4CC4)cn3)C[C@H]2C1 [Example 8, [(8R,9aS)-8-[(5-cyclopropylpyrazin-2-yl)oxy]hexahydro-1H-pyrrolo[1,2-a][1,4]diazepin-2(3H)-yl](4-fluorophenyl)methanone] | 3.04 µM
4 | O=C(c1cccc(C(F)(F)F)c1)N1CCC(=O)N2C[C@H](Oc3cnc(C4CC4)cn3)C[C@@H]2C1 [Example 57, (8R,9aR)-8-[(5-cyclopropylpyrazin-2-yl)oxy]-2-[3-(trifluoromethyl)benzoyl]octahydro-5H-pyrrolo[1,2-a][1,4]diazepin-5-one] | 11.2 µM
5 | O=C1CCN(c2ccc(C(F)(F)F)cn2)C[C@H]2C[C@@H](Oc3cnc(C4CC4)cn3)CN12 [Example 55, (8R,9aR)-8-[(5-cyclopropylpyrazin-2-yl)oxy]-2-[5-(trifluoromethyl)pyridin-2-yl]octahydro-5H-pyrrolo[1,2-a][1,4]diazepin-5-one] | 3.43 µM
6 | O=C1[C@@H]2C[C@@H](Oc3cnc(C4CC4)cn3)CN2CCCN1Cc1ccc(F)c(C(F)(F)F)c1 [Example 26, (8R,9aS)-8-[(5-cyclopropylpyrazin-2-yl)oxy]-2-[4-fluoro-3-(trifluoromethyl)benzyl]octahydro-1H-pyrrolo[1,2-a][1,4]diazepin-1-one] | 1.1 µM
7 | O=C(c1ccc(C(F)(F)F)cc1F)N1CCCN2C[C@H](Oc3cnc(C4CC4)cn3)C[C@H]2C1 [Example 18, [(8R,9aS)-8-[(5-cyclopropylpyrazin-2-yl)oxy]hexahydro-1H-pyrrolo[1,2-a][1,4]diazepin-2(3H)-yl][2-fluoro-4-(trifluoromethyl)phenyl]methanone] | 1.19 µM
8 | O=C1CCN(Cc2ccc(OC(F)(F)F)cc2)C[C@H]2C[C@@H](Oc3cnc(C4CC4)cn3)CN12 [Example 56, (8R,9aR)-8-[(5-cyclopropylpyrazin-2-yl)oxy]-2-[4-(trifluoromethoxy)benzyl]octahydro-5H-pyrrolo[1,2-a][1,4]diazepin-5-one] | 2.5 µM
9 | O=C1[C@H]2C[C@@H](Oc3cnc(C4CC4)cn3)CN2CCCN1Cc1ccc(C(F)(F)F)cc1 [Example 24, (8R,9aR)-8-[(5-cyclopropylpyrazin-2-yl)oxy]-2-[4-(trifluoromethyl)benzyl]octahydro-1H-pyrrolo[1,2-a][1,4]diazepin-1-one] | 2.94 µM
10 | O=C1CCN(Cc2ccc(OC(F)(F)F)cc2)C[C@@H]2C[C@H](Oc3cnc(C4CC4)cn3)CN12 [Example 59, (8S,9aS)-8-[(5-cyclopropylpyrazin-2-yl)oxy]-2-[4-(trifluoromethoxy)benzyl]octahydro-5H-pyrrolo[1,2-a][1,4]diazepin-5-one] | 3.17 µM
11 | O=C(c1ccc(C(F)(F)F)cn1)N1CCCN2C[C@H](Oc3cnc(C4CC4)cn3)C[C@H]2C1 [Example 11, [(8R,9aS)-8-[(5-cyclopropylpyrazin-2-yl)oxy]hexahydro-1H-pyrrolo[1,2-a][1,4]diazepin-2(3H)-yl][5-(trifluoromethyl)pyridin-2-yl]methanone] | 9.27 µM
12 | O=C1[C@H](Oc2ccc(C(F)(F)F)cn2)C[C@H]2CN(S(=O)(=O)c3ccc(C(F)(F)F)cc3)CCCN12 [Example 6, (8R,9aS)-2-{[4-(trifluoromethyl)phenyl]sulfonyl}-8-{[5-(trifluoromethyl)pyridin-2-yl]oxy}octahydro-7H-pyrrolo[1,2-a][1,4]diazepin-7-one] | 0.91 µM
13 | O=C(c1ccc(C(F)(F)F)c(F)c1)N1CCC(=O)N2C[C@H](Oc3cnc(C4CC4)cn3)C[C@H]2C1 [Example 35, (8R,9aS)-8-[(5-cyclopropylpyrazin-2-yl)oxy]-2-[3-fluoro-4-(trifluoromethyl)benzoyl]octahydro-5H-pyrrolo[1,2-a][1,4]diazepin-5-one] | 1.03 µM
14 | O=C(c1cccc(OC(F)(F)F)c1)N1CCCN2C[C@H](Oc3cnc(C4CC4)cn3)C[C@H]2C1 [Example 9, [(8R,9aS)-8-[(5-cyclopropylpyrazin-2-yl)oxy]hexahydro-1H-pyrrolo[1,2-a][1,4]diazepin-2(3H)-yl][3-(trifluoromethoxy)phenyl]methanone] | 1.35 µM
15 | O=C(c1ccc(F)c(Cl)c1)N1CCCN2C[C@H](Oc3cnc(C4CC4)cn3)C[C@H]2C1 [Example 16, (3-chloro-4-fluorophenyl)[(8R,9aS)-8-[(5-cyclopropylpyrazin-2-yl)oxy]hexahydro-1H-pyrrolo[1,2-a][1,4]diazepin-2(3H)-yl]methanone] | 2.3 µM
16 | (8R,9aS)-8-[(5-cyclopropylpyrazin-2-yl)oxy]-2-{[3-(trifluoromethyl)phenyl]sulfonyl}octahydro-1H-pyrrolo[1,2-a][1,4]diazepane [Example 1] | 0.32 µM
17 | O=C1CCN(c2ccc(C(F)(F)F)cn2)C[C@H]2C[C@H](Oc3cnc(C4CC4)cn3)CN12 [Example 46, (8S,9aR)-8-[(5-cyclopropylpyrazin-2-yl)oxy]-2-[5-(trifluoromethyl)pyridin-2-yl]octahydro-5H-pyrrolo[1,2-a][1,4]diazepin-5-one] | 5.07 µM
18 | O=C1CCN(c2cccc(C(F)(F)F)n2)C[C@@H]2C[C@@H](Oc3cnc(C4CC4)cn3)CN12 [Example 48, (8R,9aS)-8-[(5-cyclopropylpyrazin-2-yl)oxy]-2-[6-(trifluoromethyl)pyridin-2-yl]octahydro-5H-pyrrolo[1,2-a][1,4]diazepin-5-one] | 1.54 µM
19 | O=C(c1cccc(C(F)(F)F)c1)N1CCC(=O)N2C[C@@H](Oc3cnc(C4CC4)cn3)C[C@H]2C1 [Example 60, (8S,9aS)-8-[(5-cyclopropylpyrazin-2-yl)oxy]-2-[3-(trifluoromethyl)benzoyl]octahydro-5H-pyrrolo[1,2-a][1,4]diazepin-5-one] | 18.8 µM
20 | O=C1CCN(S(=O)(=O)c2cccc(C(F)(F)F)c2)C[C@@H]2C[C@@H](Oc3ccc(C(F)(F)F)nc3)CN12 [Example 53, (8R,9aS)-2-{[3-(trifluoromethyl)phenyl]sulfonyl}-8-{[6-(trifluoromethyl)pyridin-3-yl]oxy}octahydro-5H-pyrrolo[1,2-a][1,4]diazepin-5-one] | 4.02 µM
